In patent US20070032538A1, “Use of compounds” (priority 1999, published 2007):

Tested on: subjects with IGM
Assay: Multi-center, double-blind, parallel group, randomized study of nateglinide vs placebo before each main meal for 8 weeks in subjects with IGM
Format: in vivo, human
Conditions: nateglinide 30 mg, 60 mg or 120 mg before each main meal, 8 weeks of treatment
Procedure: Favorable effects can be verified that confirm that hypoglycemic agents such as insulin enhancers can restore early phase insulin secretion and reduce post-prandial glucose levels in subjects with IGM. A multi-center, double-blind, parallel group, randomized study can be conducted in subjects with IGM in order to evaluate the incidence of confirmed hypoglycemia and the effects on prandial glucose associated with the administration of nateglinide 30 mg, 60 mg or 120 mg or placebo before each main meal during 8 weeks of treatment. Subjects are selected on the basis of a 2-hour plasma glucose value after a 75 g oral glucose tolerance test (OGTT) and patients essentially meeting the following additional inclusion criteria are included in the study: • two-hour glycemia post-OGTT between 7.8 to 11.1 mmol/L (one OGTT to be performed during the year before entering the study, the second to be performed within two weeks prior entering the study); • FPG <7 mmol/L; • patients are to have a body mass index (BMI) between 20-32 kg/m2; • patients are to maintain prior diet during the full course of study; • males, non-fertile females, females of child-bearing potential using a medically approved birth control method are included; • the use of other antidiabetics during the trial is not permitted. Corresponding dosages of e.g. nateglinide are administered with a large glass of water 2 (BID), 3 (TID) or 4 (QID) times daily depending on the number of main meals (breakfast, lunch, snack, dinner). The first dose is to be given with the first main meal (standardized meal i.e. 55% carbohydrates, 25% fat and 20% protein). Visits are scheduled to be performed at weeks 0, 2, 4 and 8 and the patients are to be fasted for at least 7 hours. All blood samples for laboratory evaluations are drawn between 07.00 and 10.00 a.m. HbA1c is to be measured at baseline. and after 8 weeks of treatment (fasting glucose and fructosamine). Samples of blood are to be drawn at 10, 20, […], 60, 120, and 180 minutes after drug administration (time 0) and the glucose and insulin levels to be measured. At weeks 0 and 8 visits, patients complete a standard meal challenge containing approximately 500 kcal and measurements of insulin and glucose will be performed. […] With longer treatment and follow-up, conditions and diseases associated with IGM could be prevented or reduced.

Question: With `CC(C)[C@H]1CC[C@H](C(=O)N[C@H](Cc2ccccc2)C(=O)O)CC1` [nateglinide, N-(trans-4-isopropylcyclohexylcarbonyl)-D-phenylalanine] as the compound, how does the “2 hour prandial glucose levels” value read?
Answer: Its value is “significantly reduced”.

Question: And the HBA1c?
Answer: Its HBA1c is “significantly reduced”.

Question: What about the “early phase insulin secretion” value of the same compound?
Answer: The value was “restored”.

Question: And the fructosamine levels?
Answer: The fructosamine levels was “significantly reduced”.

Question: What about the “progression to type 2 diabetes mellitus” value of the same compound?
Answer: The value was “could prevent or delay”.
